This test relates to wild-type HN08 strain. It is filed as cell-based, C. siamense.

Consider `N#Cc1c[nH]cc1-c1cccc2c1OC(F)(F)O2` [fludioxonil], for which the strain growth rate entry is given as “gradually decreases”.

(Values after US20240191244A1 (priority 2020, published 2024).)
